Literature values, collected in patent US20130023661A1, “FLUORINATING REAGENTS WITH (PERFLUORALKYL) FLUOROPHOSPHATE ANION” (MERCK PATENT GESELLSCHAFT MIT BESCHRANKTER HAFTUNG, priority 2010, published 2013).

Conditions: stored in a cool, dry place

guaranteed storage stability: not more than one year
Compound: F[N+]12CC[N+](CCl)(CC1)CC2 [F-TEDA-BF4, 1-chloromethyl-4-fluorodiazoniabicyclo[2.2.2]octane bistetrafluoroborate]
